Assay results as given in PubChem BioAssay (NCI).
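Briefly, cells in 96-well plates were exposed to five compound concentrations for 48 h, and endpoints were estimated by linear interpolation. At the GI50, growth is halved. The concentration for full growth arrest is given as TGI.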

Legend:
Assay in all cases: NCI tumour cell line growth inhibition, 48 h; in the data active = GI50 below about 0.43 µM; inactive = the rest
A498 renal = system: A498 renal
HCT-116 colon = system: HCT-116 colon
M14 melanoma = system: M14 melanoma
MOLT-4 leukemia = system: MOLT-4 leukemia
NCI-H460 lung = system: NCI-H460 lung
OVCAR-5 ovarian = system: OVCAR-5 ovarian
PC-3 prostate = system: PC-3 prostate
RXF 393 renal = system: RXF 393 renal
UACC-62 melanoma = system: UACC-62 melanoma
UO-31 renal = system: UO-31 renal

O=C(CN/C=C\C(=O)c1cc(Cl)ccc1Cl)c1ccccc1
90.5 µM: TGI (A498 renal)
inactive: GI50 (A498 renal) 23.2 µM | GI50 (HCT-116 colon) 21.2 µM | GI50 (M14 melanoma) 24 µM | GI50 (MOLT-4 leukemia) > 100 µM | GI50 (NCI-H460 lung) 32.3 µM | GI50 (OVCAR-5 ovarian) 30.6 µM | GI50 (PC-3 prostate) 26 µM | GI50 (RXF 393 renal) 22.9 µM | GI50 (UACC-62 melanoma) 20.7 µM | GI50 (UO-31 renal) 34.4 µM
67 µM: TGI (PC-3 prostate)
67.5 µM: TGI (RXF 393 renal)
43.1 µM: TGI (HCT-116 colon)
> 100 µM: TGI (MOLT-4 leukemia) | TGI (NCI-H460 lung) | TGI (OVCAR-5 ovarian) | TGI (UO-31 renal)
59.6 µM: TGI (M14 melanoma)
52 µM: TGI (UACC-62 melanoma)

Cn1c2ccccc2c(=S)c2cc(NC(=O)CCCCC(=O)Nc3ccc4c(c3)c(=S)c3ccccc3n4C)ccc21
> 100 µM: TGI (A498 renal) | TGI (HCT-116 colon) | TGI (M14 melanoma) | TGI (MOLT-4 leukemia) | TGI (NCI-H460 lung) | TGI (OVCAR-5 ovarian) | TGI (PC-3 prostate) | TGI (RXF 393 renal) | TGI (UACC-62 melanoma) | TGI (UO-31 renal)

O=S(=O)(c1ccccc1)C1CN(Cc2ccccc2)CCN(Cc2ccccc2)C1
> 68.1 µM: TGI (UACC-62 melanoma)
77.3 µM: TGI (UO-31 renal)
45.3 µM: TGI (PC-3 prostate)
> 100 µM: TGI (A498 renal) | TGI (HCT-116 colon) | TGI (M14 melanoma) | TGI (MOLT-4 leukemia) | TGI (NCI-H460 lung) | TGI (OVCAR-5 ovarian)
43.3 µM: TGI (RXF 393 renal)

CN(C)CCOc1cccc(NC2=C(Cl)C(=O)C(Nc3cccc(OCCN(C)C)c3)=C(Cl)C2=O)c1
3.27 µM: TGI (NCI-H460 lung)
inactive: GI50 (A498 renal) 1.64 µM | GI50 (M14 melanoma) 1.14 µM | GI50 (NCI-H460 lung) 1.57 µM | GI50 (OVCAR-5 ovarian) 1.84 µM | GI50 (PC-3 prostate) 1.52 µM | GI50 (UACC-62 melanoma) 1.2 µM | GI50 (UO-31 renal) 0.498 µM
0.979 µM: TGI (UO-31 renal)
3.4 µM: TGI (OVCAR-5 ovarian)
3.26 µM: TGI (A498 renal)
0.385 µM: TGI (HCT-116 colon)
active: GI50 (HCT-116 colon) 0.18 µM | GI50 (MOLT-4 leukemia) 0.255 µM | GI50 (RXF 393 renal) 0.358 µM
2.53 µM: TGI (M14 melanoma)
3.25 µM: TGI (PC-3 prostate)
1.21 µM: TGI (RXF 393 renal)
0.844 µM: TGI (MOLT-4 leukemia)
2.57 µM: TGI (UACC-62 melanoma)

O=C1[C@H](c2ccccc2)C2c3ccccc3CCN12 (some centres not stated)
> 100 µM: TGI (A498 renal) | TGI (HCT-116 colon) | TGI (M14 melanoma) | TGI (MOLT-4 leukemia) | TGI (NCI-H460 lung) | TGI (OVCAR-5 ovarian) | TGI (PC-3 prostate) | TGI (RXF 393 renal) | TGI (UACC-62 melanoma) | TGI (UO-31 renal)
inactive: GI50 (A498 renal) > 100 µM | GI50 (HCT-116 colon) > 100 µM | GI50 (M14 melanoma) > 100 µM | GI50 (MOLT-4 leukemia) > 100 µM | GI50 (NCI-H460 lung) > 100 µM | GI50 (OVCAR-5 ovarian) > 100 µM | GI50 (PC-3 prostate) > 100 µM | GI50 (RXF 393 renal) > 100 µM | GI50 (UACC-62 melanoma) > 100 µM

NNc1nc(-c2ccccn2)nc2sc3c(c12)CCCCCC3
46.8 µM: TGI (M14 melanoma)
11.8 µM: TGI (A498 renal)
> 100 µM: TGI (HCT-116 colon) | TGI (OVCAR-5 ovarian) | TGI (PC-3 prostate)
22.7 µM: TGI (MOLT-4 leukemia)
18.7 µM: TGI (UO-31 renal)
48.8 µM: TGI (UACC-62 melanoma)
57.5 µM: TGI (NCI-H460 lung)
43 µM: TGI (RXF 393 renal)
inactive: GI50 (A498 renal) 1.86 µM | GI50 (HCT-116 colon) 3.53 µM | GI50 (M14 melanoma) 5.46 µM | GI50 (MOLT-4 leukemia) 3.67 µM | GI50 (NCI-H460 lung) 4.22 µM | GI50 (OVCAR-5 ovarian) 8.61 µM | GI50 (PC-3 prostate) 3.98 µM | GI50 (RXF 393 renal) 6.8 µM | GI50 (UACC-62 melanoma) 5.96 µM | GI50 (UO-31 renal) 1.03 µM

COc1cc2c(cc1C)NC(=O)/C2=C/c1c(C)nc2sc(C)cn12
inactive: GI50 (HCT-116 colon) 53.5 µM | GI50 (M14 melanoma) 44.2 µM | GI50 (MOLT-4 leukemia) 34.4 µM | GI50 (NCI-H460 lung) 45.7 µM | GI50 (OVCAR-5 ovarian) > 100 µM | GI50 (PC-3 prostate) 34.3 µM | GI50 (RXF 393 renal) > 100 µM | GI50 (UACC-62 melanoma) 38.9 µM | GI50 (UO-31 renal) 86.6 µM
> 100 µM: TGI (HCT-116 colon) | TGI (M14 melanoma) | TGI (MOLT-4 leukemia) | TGI (NCI-H460 lung) | TGI (OVCAR-5 ovarian) | TGI (PC-3 prostate) | TGI (RXF 393 renal) | TGI (UACC-62 melanoma) | TGI (UO-31 renal)
